{"source": "patent US8563503B2", "about": "“Antibiotic, its nucleotide sequence, methods of construction and uses thereof” (Protein Design Lab. Ltd., priority 2011, dated 2013)", "molecules": {"B1": {"name": "PMC-SA4: Staphylococcus aureus pheromone AgrD IV linked to C-terminus of allosteric colicin Ia′; SEQ ID NO. 19; plasmid pBHC-SA4 (protein)", "chain": "SDPVRITNPAAESLGYDSDGREIMGVDIYLNPPRVDVFKGTPPAWSSFGNKTIWGGNEWVDDSPTRSDIEKRDKEITAYKNTLSAQQKENENKRTEAGKRLSAAIAAREKDENTLKTLRAGNADAADITRQEFRLLQAELREYGFRTEIAGYDALRLHTESRMLFADADSLRISPREARSLIEQAEKRQKDAQNADKKAADMLAEYERRKGILDTRLSELEKNGGAALAVLDAQQARLLGQQTRNDRAISEARNKLSSVTESLNTARNALTRAEQQLTQQKNTPDGKTIVSPEKFPGRSSTNHSIVVSGDPRFAGTIKITTSAVIDNRANLNYLLSHSGLDYKRNILNDRNPVVTEDVEGDKKIYNAEVAEWDKLRQRLLDARNKITSAESAVNSARNNLSARTNEQKHANDALNALLKEKENIRNQLSGINQKIAEEKRKQDELKATKDAINFTTEFLKSVSEKYGAKAEQLAREMAGQAKGKKIRNVEEALKTYEKYRADINKKINAKDRAAIAAALESVKLSDISSNLNRFSRGLGYAGKFTSLADWITEFGKAVRTENWRPLFVKTETIIAGNAATALVALVFSILTGSALGIIGYGLLMAVTGALIDESLVEKANKFWGIYSTCYFIM", "modifications": "The peptide of PMC-SA4", "notes": "Staphylococcus aureus pheromone AgrD IV linked to C-terminus of allosteric colicin Ia′; 19; plasmid pBHC-SA4"}, "B2": {"name": "PMC-SA3: Staphylococcus aureus pheromone AgrD III linked to C-terminus of allosteric colicin Ia′; SEQ ID NO. 17; plasmid pBHC-SA3 (protein)", "chain": "B1 chain with S627I, T628N, Y630D, I632L, M633L", "modifications": "The peptide of PMC-SA3", "notes": "Staphylococcus aureus pheromone AgrD III linked to C-terminus of allosteric colicin Ia′; 17; plasmid pBHC-SA3"}, "B3": {"name": "PMC-SA2: Staphylococcus aureus pheromone AgrD II linked to C-terminus of allosteric colicin Ia′; SEQ ID NO. 15; plasmid pBHC-SA2 (protein)", "chain": "SDPVRITNPAAESLGYDSDGREIMAVDIYLNPPRVDVFKGTPPAWSSFGNKTIWGGNEWVDDSPTRSDIEKRDKEITAYKNTLSAQQKENENKRTEAGKRLSAAIAAREKDENTLKTLRAGNADAADITRQEFRLLQAELREYGFRTEIAGYDALRLHTESRMLFADADSLRISPREARSLIEQAEKRQKDAQNADKKAADMLAEYERRKGILDTRLSELEKNGGAALAVLDAQQARLLGQQTRNDRAISEARNKLSSVTESLNTARNALTRAEQQLTQQKNTPDGKTIVSPEKFPGRSSTNHSIVVSGDPRFAGTIKITTSAVIDNRANLNYLLSHSGLDYKRNILNDRNPVVTEDVEGDKKIYNAEVAEWDKLRQRLLDARNKITSAESAVNSARNNLSARTNEQKHANDALNALLKEKENIRNQLSGINQKIAEEKRKQDELKATKDAINFTTEFLKSVSEKYGAKAEQLAREMAGQAKGKKIRNVEEALKTYEKYRADINKKINAKDRAAIAAALESVKLSDISSNLNRFSRGLGYAGKFTSLADWITEFGKAVRTENWRPLFVKTETIIAGNAATALVALVFSILTGSALGIIGYGLLMAVTGALIDESLVEKANKFWGIGVNACSSLF", "modifications": "The peptide of PMC-SA2", "notes": "Staphylococcus aureus pheromone AgrD II linked to C-terminus of allosteric colicin Ia′; 15; plasmid pBHC-SA2"}}, "key": {"[1]": {"tested_on": "Multiple-drug resistance Pseudomonas aeruginosa (clinical separated strain 13280)", "assay": "In vivo protection of mice infected by multiple-drug resistance Pseudomonas aeruginosa", "design": "species or system Kungming mice", "settings": "fatal dose i.p.", "from_the_text": "(1) Drugs • PMC-PA, piperacillin, amikacin, ceftazidime, levofloxacin.\nMultiple-drug resistance Pseudomonas aeruginosa (clinical separated strain 13280, isolated by laboratory bacteria room of West China Hospital)\nKungming mice (n=60), half male and half female, weighing 15-20 g were given intraperitoneal injection of multiple-drug resistance Pseudomonas aeruginosa, therein PMC-PA, piperacillin, amikacin, ceftazidime and levofloxacin experimental group were set respectively as 10 mice per group, while the control group was set as 10 mice per group. After given intraperitoneal injection of fatal dose of the bacterium, the mice in drug experimental groups respectively were given an intravenous injection of one kind of above drugs, the results were observed per 24 hours for continuous 10 days. The positive result was mouse's death."}, "[2]": {"tested_on": "Staphylococcus aureus MRSA BAA-42", "assay": "MIC against the infecting strain (Table 2)", "type": "cell-based", "settings": "Staphylococcus aureus MRSA BAA-42", "description": "(§1) (3) Culture Solution • MH Broth Culture Solution: 25 g was added into […] distilled water, heat to dissolve, subpackaged, autoclaved at 116° C. for 20 minutes, and MH Solid Culture Medium, 36 g was added into 1000 ml distilled water, autoclaved at 116° C. for 20 minutes, used for drug sensitive test of Gram-positive and negative aerobic bacteria. • Blood culture solution for Enterococcus faecalis, which was prepared by adding defibration rabbit blood into the MH culture solution by 5-10% and cultured at 37° C. in 5% CO2 for 24 hours. 2. Experimental Methods (1) The Measurement of Minimum Inhibitory Concentration (MIC) • The Minimum Inhibitory Concentration (MIC) of PMC-SA1 was measured by Agar Doubling Dilution Method. The bacterium was inoculated on the surface of agar plate containing different concentration of drugs by multipoint inoculate instrument (Deneley A400). The bacterial content per point was 10^5 CFU/ml. After incubated at 37° C. for 18-24 hours, the result can be observed. The least concentration of drugs in plate culture solution without bacterium growing was Minimum Inhibitory Concentration (MIC) of the drug to the said bacteria. 3. Results"}, "[3]": {"tested_on": "Staphylococcus aureus ATCC 29213", "assay": "MIC against the infecting strain (Table 2)", "type": "cell-based", "settings": "ATCC29213", "description": "as §1"}, "[4]": {"tested_on": "Staphylococcus aureus MRSA BAA-42", "assay": "Protection test in vivo (intravenous injection) of infected mice", "design": "species or system Kungming mice", "settings": "mice, infected with 6.5 × 10^5 cfu/ml i.p., drug once intravenous", "description": "(§2) The drugs used in this embodiment were same with that used in embodiment 4.\n(§3) The above drugs were dissolved and diluted by sterilized water, and the injection concentrations of each drug were 10 mg/kg, 5 mg/kg and 2.5 mg/kg.\n(§4) After given intraperitoneal injection of fatal dose of above-mentioned bacteria, the mice of each drug experimental group respectively were given once intravenous injection of the drug by 10 mg, 5 mg, 2.5 mg/kg. The results were observed per 24 hours for 7-14 days. The positive result is mice's death."}, "Enterococcus ATCC 700802": {"tested_on": "Enterococcus ATCC 700802", "assay": "Protection test in vivo (intravenous injection) of infected mice", "design": "species or system Kungming mice", "settings": "mice, infected with 7.0 × 10^6 cfu/ml i.p., drug once intravenous", "description": "as §2, §3, §4"}, "[5]": {"tested_on": "Staphylococcus aureus ATCC 29213", "assay": "Protection test in vivo (intravenous injection) of infected mice", "design": "species or system Kungming mice", "settings": "mice, infected with 4.6 × 10^5 cfu/ml i.p., drug once intravenous", "description": "as §2, §3, §4"}, "E. coli 02-1-65": {"tested_on": "E. coli 02-1-65", "assay": "Protection test in vivo (intravenous injection) of infected mice", "design": "species or system Kungming mice", "settings": "mice, infected with 3.8 × 10^5 cfu/ml i.p., drug once intravenous", "description": "as §2, §3, §4"}, "[6]": {"tested_on": "methicillin-resistant Staphylococcus aureus ATCC BAA-42", "assay": "Bacteria growth curve (A595 nm), comparison of the novel antibiotics", "type": "cell-based", "settings": "drug 5 μg/ml, 37° C., A595 nm per hour", "description": "The following experiment was set for comparing bacteriostasis effects of 6 kinds of the novel antibiotics. The experimental bacteriaum was United States Standard Strain methicillin-resistant Staphylococcus aureus ATCC BAA-42. 5 microliter of bacteria solution (10^6 CFU/ml level bacterium amount) was added into 10 ml culture solution containing 1% peptone, 1% NaCl, 0.5% yeast extract, 0.5% glucose and 0.1% K2HPO4, total of 8 groups were prepared. The first group as control was added 0.3 M NaCl+50 mM boric acid buffer fluid by the same volume as that of antibiosis polypeptide liquid added in any experimental groups, the second group was added penicillin G sodium by 5 μg/ml, PMC-SA1, PMC-SA2, PMC-SA3, PMC-SA4, PMC-SE and PMC-PA were added in the other experimental groups with preservative fluid being 0.3 M NaCl+50 mM boric acid buffer fluid by 5 ug/ml.\nThe solution of above groups was put into 100 ml conical flask, 200 rpm, grew at 37° C. 100 μl was sampled per hour, and added onto 96-pore ELISA plate and measured bacteria grown cloudiness by spectrophotometer (A595 nm) color comparison. The bacteria growth curve was drawn up to compare the bacteriostasis efficacy of antibiosis polypeptide."}}, "note": "Residue numbers refer to the chain shown, from its start.", "data": [{"molecule": "C[C@H]1COc2c(N3CCN(C)CC3)c(F)cc3c(=O)c(C(=O)O)cn1c23", "note": "[levofloxacin]", "values": [{"measurement": "survival rate of mice in 10 days", "setting": "[1]; 5 mg/kg intravenous", "result": 40, "unit": "%"}]}, {"molecule": "CCN1CCN(C(=O)N[C@@H](C(=O)N[C@@H]2C(=O)N3[C@@H]2SC(C)(C)[C@@H]3C(=O)O)c2ccccc2)C(=O)C1=O", "note": "[piperacillin]", "values": [{"measurement": "time in which mice were all dead", "setting": "[1]; 50 mg/kg intravenous", "result": "≤ 3", "unit": "days"}]}, {"molecule": "NCC[C@H](O)C(=O)N[C@@H]1C[C@H](N)[C@@H](O[C@H]2O[C@H](CN)[C@@H](O)[C@H](O)[C@H]2O)[C@H](O)[C@H]1O[C@H]1O[C@H](CO)[C@@H](O)[C@H](N)[C@H]1O", "note": "[amikacin]", "values": [{"measurement": "time in which mice were all dead", "setting": "[1]; 5 mg/kg intravenous", "result": "≤ 4", "unit": "days"}]}, {"molecule": "CC(C)(O/N=C(\\C(=O)N[C@@H]1C(=O)N2C(C(=O)[O-])=C(C[n+]3ccccc3)CS[C@H]12)c1csc(N)n1)C(=O)O", "note": "[ceftazidime]", "values": [{"measurement": "survival rate of mice in 10 days", "setting": "[1]; 50 mg/kg intravenous", "result": 20, "unit": "%"}]}, {"molecule": "Cc1nnc(SCC2=C(C(=O)[O-])N3C(=O)[C@@H](NC(=O)Cn4cnnn4)[C@H]3SC2)s1.[Na+]", "note": "[Cefazolin, Cefazolin Sodium]", "values": [{"measurement": "MIC", "setting": "[2]", "result": 6, "unit": "mg/L"}, {"measurement": "MIC", "setting": "[3]", "result": 7, "unit": "mg/L"}, {"measurement": "ED50", "setting": "[4]", "result": 9.04, "unit": "mg/kg"}, {"measurement": "ED50", "setting": "Enterococcus ATCC 700802", "result": ">10", "unit": "mg/kg"}, {"measurement": "ED50", "setting": "[5]", "result": 29.11, "unit": "mg/kg"}, {"measurement": "ED50", "setting": "E. coli 02-1-65", "result": ">30", "unit": "mg/kg"}]}, {"molecule": "B1", "values": [{"measurement": "bacteriostasis effect on growth of methicillin-resistant Staphylococcus aureus (bacteria growth curve)", "setting": "[6]", "result": "less better"}]}, {"molecule": "B2", "values": [{"measurement": "bacteriostasis effect on growth of methicillin-resistant Staphylococcus aureus (bacteria growth curve)", "setting": "[6]", "result": "still less better"}]}, {"molecule": "B3", "values": [{"measurement": "bacteriostasis effect on growth of methicillin-resistant Staphylococcus aureus (bacteria growth curve)", "setting": "[6]", "result": "still less better"}]}]}
